Results taken from patent US20250011289A1, “1H-BENZO[B]AZEPIN-2(3H)-ONE COMPOUNDS, COMPOSITIONS AND METHODS OF TREATING CANCER” (Chengdu Anticancer Bioscience, Ltd., priority 2021, published 2025).
Where two headings read alike, the source gives them in different places.

How the values were obtained:
[1] = tested on: RPE-Neo or RPE-MYC or RPE-MYC expressing an EGFP-Histone 2B fusion protein; test: Phenotypic screening assay (arrest in mitosis or change in DNA content, IN-Cell Analyzer); assay type: cell-based; details: compounds at 20 nM to 20 μM, analysed 24, 48 or 72 hours after initiation of treatment
Procedure: (§1) Screening was conducted as described before (Li et al. 2019). Briefly, RPE-Neo or RPE-MYC or RPE-MYC expressing an EGFP-Histone 2B fusion protein were passaged as batches of 96-well plates, 18-24 hours before exposure to the chemical compounds of the present disclosure at concentrations from 20 nM to 20 μM. At 24, 48 or 72 hours after initiation of treatment, cells were analyzed for either an arrest in mitosis or a change in DNA content by GE 1N-Cell Analyzer 2000. MTT assays of cellular proliferation were performed as previously described (Li et al. 2019).
(§2) As set forth in table 2 below, an values of greater than or equal to 1 nM and less than or equal to 1.0 μM is marked “A”; a value greater than 1.00 μM and less than or equal to 10.0 μM is marked “B”; a value greater than 10.0 μM and less than or equal to 30.0 μM is marked “C”; and a value greater than 30.0 μM and less than 1000 μM is marked “D.”

RPE-Neo or RPE-MYC cells = test: MTT assay of cellular proliferation; assay type: cell-based; details: compounds at 20 nM to 20 μM; read-out: Min. Effective conc. for Proliferative arrest (>50%)
Procedure: Human cancer cell lines were obtained from ATCC and cultured in DMEM (Gibco, Cleveland. TN, USA) supplemented with 5% fetal bovine serum (Gibco), penicillin (100 U/mL)-streptomycin (100 μg/mL) (Gibco, Cat. No. 15140-122), 2 mM L-glutamine (Gibco, 200 mM solution, Cat. No. 25030081), and 1 mM sodium pyruvate (Gibco, 100 mM solution, Cat. No. 11360070) at 37° C. in a humidified incubator that was maintained at 5% CO2.
as §1, §2

[2] = read-out: Min. Effective conc. for Along with Cell Death
[3] = read-out: Min. Effective conc. for Mitotic Arrest (>5%)
[4] = read-out: Min. Effective conc. for Polyploidy (≥5%)

Row | Structure (SMILES) | minimal effective concentration [1, 2] | minimal effective concentration [1, 3] | minimal effective concentration [1, 4] | minimal effective concentration (RPE-Neo or RPE-MYC cells)
1 | COC1=C(c2nc(C)no2)CC(=O)N(Cc2ccc(C)c(F)c2)c2cc(Br)ccc21 [Compound 10-1, 8-bromo-1-(3-fluoro-4-methylbenzyl)-5-methoxy-4-(3-methyl-1,2,4-oxadiazol-5-yl)-1,3-dihydro-2H-benzo[b]azepin-2-one] | 0.001 to 1 µM | 0.001 to 1 µM | 0.001 to 1 µM | 0.001 to 1 µM
2 | Cc1ccc(CN2C(=O)CC(c3cnco3)=C(Br)c3ccccc32)cc1F [Compound 8-2, 5-bromo-1-(3-fluoro-4-methylbenzyl)-4-(oxazol-5-yl)-1,3-dihydro-2H-benzo[b]azepin-2-one] | 0.001 to 1 µM | 0.001 to 1 µM | 0.001 to 1 µM | 0.001 to 1 µM
3 | COc1ccc(CN2C(=O)CC(c3nnc(C4CC4)o3)=C(Br)c3ccccc32)cc1F [Compound 20-25, 5-bromo-4-(5-cyclopropyl-1,3,4-oxadiazol-2-yl)-1-(3-fluoro-4-methoxybenzyl)-1,3-dihydro-2H-benzo[b]azepin-2-one] | 0.001 to 1 µM | 0.001 to 1 µM | 0.001 to 1 µM | 0.001 to 1 µM
4 | Cc1cc(F)c(CN2C(=O)CC(c3nnc(C4CC4)o3)=C(Br)c3ccccc32)cc1F [Compound 20-28, 5-bromo-4-(5-cyclopropyl-1,3,4-oxadiazol-2-yl)-1-(2,5-difluoro-4-methylbenzyl)-1,3-dihydro-2H-benzo[b]azepin-2-one] | 0.001 to 1 µM | 0.001 to 1 µM | 0.001 to 1 µM | 0.001 to 1 µM
5 | Cc1ccc(CN2C(=O)CC(COCC3CCOC3)=C(Br)c3ccccc32)cc1F (stereo not shown) [Compound 44-3] | 0.001 to 1 µM | 1 to 10 µM | 0.001 to 1 µM | 0.001 to 1 µM
6 | CCOCC1=C(Cl)c2ccccc2N(Cc2ccc(C)c(F)c2)C(=O)C1 [Compound 24-2, 5-chloro-4-(ethoxymethyl)-1-(3-fluoro-4-methylbenzyl)-1,3-dihydro-2H-benzo[b]azepin-2-one] | 0.001 to 1 µM | 0.001 to 1 µM | 0.001 to 1 µM | 0.001 to 1 µM
7 | Cc1ccc2c(c1)N(Cc1ccc(C)c(F)c1)C(=O)CC(c1nnc(C3CC3)o1)=C2Br [Compound 20-12, 5-bromo-4-(5-cyclopropyl-1,3,4-oxadiazol-2-yl)-1-(3-fluoro-4-methylbenzyl)-8-methyl-1,3-dihydro-2H-benzo[b]azepin-2-one] | 0.001 to 1 µM | 0.001 to 1 µM | 0.001 to 1 µM | 0.001 to 1 µM
8 | Cc1ccc(CN2C(=O)CC(COC3CCOCC3)=C(Br)c3ccccc32)cc1F [Compound 44-2, 5-bromo-1-(3-fluoro-4-methylbenzyl)-4-(((tetrahydro-2H-pyran-4-yl)oxy)methyl)-1,3-dihydro-2H-benzo[b]azepin-2-one] | 1 to 10 µM | 1 to 10 µM | 1 to 10 µM | 1 to 10 µM
9 | COc1ccc(CN2C(=O)CC(c3nnc(C4CC4)o3)=C(Br)c3ccccc32)cc1 [Compound 20-21, 5-bromo-4-(5-cyclopropyl-1,3,4-oxadiazol-2-yl)-1-(4-methoxybenzyl)-1,3-dihydro-2H-benzo[b]azepin-2-one] | 0.001 to 1 µM | 0.001 to 1 µM | 0.001 to 1 µM | 0.001 to 1 µM
10 | COCC1=C(Br)c2ccccc2N(Cc2ccc(C)c(F)c2)C(=O)C1 [Compound 42, 5-bromo-1-(3-fluoro-4-methylbenzyl)-4-(methoxymethyl)-1,3-dihydro-2H-benzo[b]azepin-2-one] | 0.001 to 1 µM | 0.001 to 1 µM | 0.001 to 1 µM | 0.001 to 1 µM
